Publication PMC12040169 (PLOS Biology, 2025)

Assay: in vitro
Conditions: human, hela cells, % viability

| Structure (SMILES) | viability at 28.5 h, 10 µM |
| --- | --- |
| Cc1cc2ncc3c(n2n1)CC1CCC3N1Cc1ccccc1 (stereo not drawn) [CBK282266] | 104% |
| O=CN1C2CCC1c1cnc3cc(-c4cccc(F)c4)nn3c1C2 (stereo not drawn) [CBK282269] | 91.9% |
| O=C1NC2=C(C(=O)N(CC3CCCO3)C2)C(c2ccc(F)c(F)c2)N1 (stereo not drawn) [CBK282271] | 98% |
| O=C(NC1CC1)c1ccc(-n2cccn2)c(C#Cc2ccccn2)c1 [CBK282272] | 106% |
| Cn1ccnc1C1(O)CCN(C(=O)Nc2ccc(F)cc2)CC1 [CBK282277] | 97.4% |
| Cn1ccnc1C1(O)CCN(C(=O)Nc2ccccc2Cl)CC1 [CBK282278] | 89.3% |
| Cn1ccnc1C1(O)CCN(C(=O)Nc2cccc(F)c2)CC1 [CBK282279] | 109% |
| CCCNC(=O)N1CCC(n2cnc3cccnc32)CC1 [CBK282282] | 84.3% |
| CN(C)CCn1c([C@@H]2CCCO2)cc2cccnc21 [CBK282288] | 105% |
| CCCNC(=O)N1CCC(n2c(C)nc3cccnc32)CC1 [CBK282292] | 88.9% |
| Cc1cccnc1C1(O)CCN(C(=O)NCc2ccccc2)CC1 [CBK282293] | 88% |
| O=c1c2sccc2nc2n1CCN(Cc1ccc(F)c(F)c1)CC2 [CBK282295] | 103% |
| Cc1cc2cc(CNCCCN3CCCC3=O)c(=O)[nH]c2cc1C [CBK282296] | 81.4% |
| CCOC(=O)C1(Cc2ccccc2-c2ccncc2)CCNCC1 [CBK282297] | 88.8% |
| CCn1c(=O)n(CC(=O)N(C)C)c2cccnc21 [CBK282299] | 89.1% |
| O=C(NCCn1nc2c(cc1=O)CCCCC2)c1ccccc1F [CBK282300] | 89.3% |
| CC(C)(C)OC(=O)N1CCC[C@H]([C@H](O)c2cccs2)C1 [CBK282301] | 102% |
| C[C@@H](Cn1nnc2ccccc21)NC(=O)Cc1ccccc1F [CBK282305] | 86.1% |
| Cc1cc(C(=O)NC2CCCc3c2cnn3-c2ccc(F)cc2)on1 (stereo not drawn) [CBK282310] | 108% |
| O=C1NCC(C2CCN(Cc3ccccc3)CC2)Oc2ccccc21 (stereo not drawn) [CBK282314] | 85.9% |
| CC(C)C(=O)N1CCC[C@@H](Cn2nc(-c3cccs3)ccc2=O)C1 [CBK282317] | 96.5% |
| CC(NC(=O)c1ncoc1-c1ccc(F)cc1)c1ccncc1 (stereo not drawn) [CBK282319] | 100% |
| CC(C)[C@@H](Cn1nc(C2CC2)ccc1=O)NC(=O)c1ccco1 [CBK282321] | 88.3% |

| Structure (SMILES) | viability at 28.5 h, 10 µM |
| --- | --- |
| O=C(c1ccc(F)cc1)[C@H]1CCCN(C(=O)c2n[nH]c3c2CCC3)C1 [CBK282322] | 86.7% |
| Fc1cccc(-c2nc3cnccn3c2NCc2ccco2)c1 [CBK282323] | 93.5% |
| COc1ccc(CNC(=O)[C@H]2C=CCN2C(=O)c2cccs2)cc1 [CBK282325] | 103% |
| COc1ccc(CNC(=O)[C@H]2C=CCN2C(=O)C2CC2)cc1 [CBK282326] | 109% |
| Cc1nc2c(c(=O)[nH]1)CN(Cc1c[nH]c3ccccc13)CC2 [CBK282327] | 102% |
| CCS(=O)(=O)N1CC2C3c4ccccc4C(c4ccccc43)C2C1 (stereo not drawn) [CBK282328] | 98.5% |
| O=C(C1CCCC1)N1CCc2nc(-c3ccccc3)[nH]c(=O)c2C1 [CBK282331] | 99% |
| Fc1ccccc1-c1nc2cnccn2c1NCc1cccs1 [CBK282332] | 90.3% |
| CC(C)[C@@H](Cn1nnc2ccccc21)NC(=O)c1ccco1 [CBK282335] | 108% |
| C#CCNC(=O)C1CCCN(c2nc3ccccc3n2C)C1 (stereo not drawn) [CBK282336] | 89.6% |
| COc1ccc(-n2ncc3c2CC(C)(C)CC3NC(=O)C2CC2)cc1 (stereo not drawn) [CBK282337] | 91.1% |
| Cc1nc2c(c(=O)[nH]1)CCN(Cc1cc(C)n(C3CC3)c1C)C2 [CBK282338] | 89.2% |
| O=C(C1=Cc2ccccc2OC1)N1CCC(c2ccncc2)CC1 [CBK282339] | 104% |
| CCn1cc(C(=O)NC2CC3(CCCC3)Oc3ccccc32)c(C)n1 (stereo not drawn) [CBK282340] | 91.2% |
| CC(C)(C)C(=O)NCCn1nc(-c2cccs2)oc1=O [CBK282344] | 110% |
| O=C(NCCn1nc(-c2cccs2)oc1=O)C1CCCC1 [CBK282345] | 105% |
| CCN(CC)C(=O)Cn1c(=O)n(CC)c2ncccc21 [CBK282347] | 107% |
| C=CCNC(=O)[C@H]1C=CCN1C(=O)Nc1ccccc1Cl [CBK282348] | 99% |
| CC(C)C(=O)N1CCC(n2nc(C3CC3)ccc2=O)CC1 [CBK282351] | 104% |
| O=C(NCc1ccccn1)c1ncoc1-c1ccc(F)cc1 [CBK282352] | 79.6% |
| O=C(NCc1ccncc1)c1ncoc1-c1ccc(F)cc1 [CBK282354] | 83.8% |
| O=C(NCCn1cccn1)c1ncoc1-c1ccc(F)cc1 [CBK282355] | 91.5% |
| CC(NC(=O)c1ncoc1-c1ccc(F)cc1)c1cccnc1 (stereo not drawn) [CBK282358] | 103% |

| Structure (SMILES) | viability at 28.5 h, 10 µM |
| --- | --- |
| Cc1nn(C)c(C)c1NC(=O)c1ncoc1-c1ccc(F)cc1 [CBK282359] | 87.7% |
| CCn1nc(C)c(NC(=O)c2ncoc2-c2ccc(F)cc2)c1C [CBK282360] | 88% |
| CCCn1nc(C)cc1NC(=O)c1ncoc1-c1ccc(F)cc1 [CBK282361] | 88.7% |
| O=C1NC2=C(C(=O)N(CCN3CCCC3)C2)C(c2cccc(F)c2)N1 (stereo not drawn) [CBK282365] | 105% |
| Cc1nn(C)cc1C(=O)N1CCCC1c1nc2ccccc2[nH]1 (stereo not drawn) [CBK282371] | 84.7% |
| Cn1c(N2CCCC(C(N)=O)C2)nc2ccccc21 (stereo not drawn) [CBK282372] | 105% |
| Cc1ccnn1CCC(=O)N1CCCCC1c1nc2ccccc2[nH]1 (stereo not drawn) [CBK282374] | 105% |
| C=CCn1c(C)c(CN2CCc3nc(C)[nH]c(=O)c3C2)c2ccccc21 [CBK282375] | 97.3% |
| C=CCn1cc(CN2CCc3nc(C)[nH]c(=O)c3C2)c2ccccc21 [CBK282376] | 85.9% |
| CCc1c(C)sc2ncn(C3CCN(C(=O)C(C)C)CC3)c(=O)c12 [CBK282377] | 81.1% |
| CC1CN(C(=O)c2ncoc2-c2ccc(F)cc2)CC(C)O1 (stereo not drawn) [CBK282379] | 90% |
| O=C(CC1CCCC1)NCCn1nc(-c2cccs2)oc1=O [CBK282386] | 87.2% |
| CCOC(=O)Cn1ncc2c3sc(C)cc3n(C)c2c1=O [CBK282388] | 96.2% |
| O=C(CCn1ncc2ccccc21)N1CCC(c2ccncc2)CC1 [CBK282395] | 82% |
| CC(C(=O)N1CCC(O)(c2ccccn2)CC1)c1ccccc1 (stereo not drawn) [CBK282396] | 102% |
| O=C(c1csc2c1CCCC2)N1CCC(O)(c2ccccn2)CC1 [CBK282397] | 107% |
| CC(=O)N1CCCN(C(=O)c2ncoc2-c2ccc(F)cc2)CC1 [CBK282398] | 85.2% |
| O=C(c1ncoc1-c1ccc(F)cc1)N1CCN2CCCC2C1 (stereo not drawn) [CBK282399] | 90.1% |
| C=CCNC(=O)C1CN(C)CC12CCc1ccccc1C(=O)N2 (stereo not drawn) [CBK282401] | 83% |
| O=C(NCCCn1ccnc1)c1ncoc1-c1cccs1 [CBK282404] | 92.7% |
| Cc1sc2nc(C(C)C)n(C3CCNCC3)c(=O)c2c1C [CBK282407] | 100% |
| CC(NC(=O)c1ncoc1-c1ccccc1Cl)c1ccccn1 (stereo not drawn) [CBK282409] | 94.8% |
| Cc1c(C(=O)N2CCC(c3ccncc3)CC2)oc2ccccc12 [CBK282413] | 109% |

| Structure (SMILES) | viability at 28.5 h, 10 µM |
| --- | --- |
| Cc1nc2c(c(=O)[nH]1)CN(C1CCCCC1)CC2 [CBK282416] | 82.2% |
| Cc1cccc(-c2ocnc2C(=O)NCCCn2ccnc2)c1 [CBK282418] | 80.1% |
| CCn1c(N2CCCC(C(=O)NC3CC3)C2)nc2ccccc21 (stereo not drawn) [CBK282419] | 106% |
| O=C(NC1CC2(CCCC2)Oc2ccccc21)C1CCCO1 (stereo not drawn) [CBK282420] | 110% |
| O=C(C1CCCC1)N1CCC(n2nc(-c3cccs3)oc2=O)CC1 [CBK282424] | 87.5% |
| O=C(c1cc(C2CC2)on1)N1CCn2cc(C(F)(F)F)nc2C1 [CBK282425] | 85.4% |
| Cc1nc2cccnc2n1C1CCN(C(=O)C(C)(C)C)CC1 [CBK282426] | 89.2% |
| Cc1cccc(-c2ocnc2C(=O)NC(C)c2ccccn2)c1 (stereo not drawn) [CBK282427] | 87.4% |
| Cc1cc(C(=O)N2CCn3cc(C(F)(F)F)nc3C2)on1 [CBK282430] | 101% |
| Cc1noc(C)c1C(=O)N1CCn2cc(C(F)(F)F)nc2C1 [CBK282431] | 90.2% |
| COc1ccc2cc3c(nc2c1)OC(=O)N(CC1CC1)C3 [CBK282432] | 86.8% |
| O=C(CN1C(=O)[C@@H]2CCCN2C(=O)c2ccccc21)N1CCCC1 [CBK282434] | 104% |
| Cc1csc(C(Cc2ccsc2)NCC2=CCCOC2)n1 (stereo not drawn) [CBK282439] | 101% |
| CC(Cc1cccs1)NC(=O)c1cccc(-n2cnnc2)c1 (stereo not drawn) [CBK282443] | 102% |
| Cc1ccc2n1CCN(C(=O)c1cccc(-n3cnnc3)c1)C2C(C)C (stereo not drawn) [CBK282444] | 105% |
| CC(Cc1cccs1)NC(=O)c1cc(-c2ccccn2)n[nH]1 (stereo not drawn) [CBK282446] | 104% |
| Cc1ccc2n1CCN(C(=O)c1cc(-c3ccccn3)n[nH]1)C2C(C)C (stereo not drawn) [CBK282447] | 101% |
| O=C(NC1CC1)c1ccc(-n2cccn2)c(C#Cc2cccnc2)c1 [CBK282449] | 107% |
| O=C(NCCN1CCC(O)(c2cccc(F)c2)CC1)c1cccs1 [CBK282450] | 112% |
| O=C(NCCN1CCC(O)(c2cccc(F)c2)CC1)C1CC=CCC1 (stereo not drawn) [CBK282451] | 101% |
| O=C(Cn1c(-c2cccs2)cc2cccnc21)N1CCOCC1 [CBK282452] | 101% |
| O=C(Cn1c(-c2cccs2)cc2cccnc21)N1CCCC1 [CBK282453] | 83% |
| O=C(Cn1c(-c2cccs2)cc2cccnc21)NCc1ccncc1 [CBK282456] | 104% |

Same assay, conditions: human, hela cells, % viability, bulk resorufin, single well

| Structure (SMILES) | viability at 28.5 h, 10 µM |
| --- | --- |
| CC[C@H](N)Cn1nc(-c2cccs2)oc1=O [CBK282393] | 82.6% |
